Assay results: paper PMC10721898, “C5 methylation confers accessibility, stability and selectivity to picrotoxinin” (Nature Communications, 2023)
Like-named read-outs stand apart in the source and are kept apart here.

Experiments:
[1] = molecular target: T1, Drosophila RDL (Drosophila melanogaster, UniProt P25123); assay: RDL receptors assay: two-electrode voltage clamp electrophysiology in Xenopus oocytes; assay type: cell-based
T1 construct: expressed in transfected cells; host or cells: Xenopus oocytes (Ecocyte, Austin, TX) microinjected with capped cRNA
T1 sequence (P25123 45-606): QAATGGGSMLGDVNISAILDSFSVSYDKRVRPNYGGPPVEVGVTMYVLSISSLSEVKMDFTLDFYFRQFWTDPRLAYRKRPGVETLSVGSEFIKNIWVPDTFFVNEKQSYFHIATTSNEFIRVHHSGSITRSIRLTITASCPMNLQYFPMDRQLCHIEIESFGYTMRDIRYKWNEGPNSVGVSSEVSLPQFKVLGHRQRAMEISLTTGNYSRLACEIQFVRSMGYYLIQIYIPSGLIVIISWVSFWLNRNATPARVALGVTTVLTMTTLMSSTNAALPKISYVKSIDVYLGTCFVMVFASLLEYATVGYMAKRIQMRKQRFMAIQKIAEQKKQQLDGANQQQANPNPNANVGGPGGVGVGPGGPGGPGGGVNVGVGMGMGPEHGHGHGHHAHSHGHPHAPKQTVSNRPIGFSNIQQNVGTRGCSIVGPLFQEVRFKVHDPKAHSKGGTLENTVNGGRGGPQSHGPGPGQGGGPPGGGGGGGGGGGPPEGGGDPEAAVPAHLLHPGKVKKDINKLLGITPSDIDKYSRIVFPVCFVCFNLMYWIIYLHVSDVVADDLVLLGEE
Method: 5. RDL receptors binding assay
The Drosophila RDL sequence (NP_01261616.1) was cloned into the pGH19 backbone via Gibson assembly for capped cRNA synthesis using the T7 mMessage mMachine kit (Invitrogen). cRNA samples were stored at - 80 °C until use. Ready to inject Xenopus oocytes were obtained from Ecocyte (Austin, TX) and microinjected using a Nanoinject III (Drummond Scientific) with 4 nL of cRNA (1 μg/μL). The oocytes were then incubated at 16 °C in ND96 storage solution (93.5 mM NaCl, 2 mM KCl, 1.8 mM CaCl 2·2H2O, 2 mM MgCl 2·6H2O, 5 mM HEPES at pH 7.5). Recording were made 1 -6 days post injection.
Electrophysiology experiments were performed using an automated two -electrode voltage clamp set -up (Roboocyte 2, Mutlichannel Systems). Recording head were filled with 3M KCl and gave resistan ce of 100-2000 kΩ in medium. Membrane potential was held at -60 mV and current signal was sampled at 20 kHz.
Experiments were performed at room temperature using Modified Barth’s Saline (MBS) (88 mM NaCl, 1 mM KCl, 2.4 mM NaHCO 3, 15 mM HEPES, 0.3 mM Ca(NO3)2, 0.41 mM CaCl 2, and 0.82 mM MgSO 4·7H2O at pH 7.4). Oocytes were perfused with MBS at 5 mL/min in all assays. GABA and all compounds were dissolved in MBS and a 0.1% DMSO negative control was utilized to correct for any solvent effect.
Initial block potential of each compound was assessed utilizing a pre -incubation method (MBS (30 sec), 10 μM GABA (15 sec), MBS wash (60 sec), compound (60 sec), compound + 10 μM GABA (15 sec), compound (60 sec), compound + 10 μM GABA (15 sec), MBS wash (60 sec) with 10 μM of each test compound. The maximum signal of the second co -application was compared to the initial GABA response to determine the % block and then standardized against the corresponding value of the 0.1% DMSO control. Dose responses were performed for any compound showing >50% block in the initial test using 10, 1, and 0.1 μM. The IC50 values were fit using an inhibitor vs response 4 -parameter fit (GraphPad Prism 8.1.2).
Supplementary Table 9. IC50 values of test compound
(§1) Compound IC50 (µM) Compound IC50 (µΜ)

[2] = molecular target: rat GABAA ion channel; assay: Non-selective rat GABAA ion channel [3H]TBOB binding (antagonist radioligand) assay, rat cerebral cortex; conditions: [3H]TBOB displacement, n = 1
Method: The structurally privileged 5-methyl series was assayed for binding to both GABAA receptors (rat cortex membrane preparations) and RDL (expressed in Xenopus oocytes) and compared directly to the parent PXN (C5-H) series. The parallel series of PXN and 5MePXN analogs allowed us to interrogate the effect of the synthetically-enabling and stabilizing C5 methyl. […]
4. Rat GABAA receptors binding assay
Non-selective rat GABAA ion channel [3H] TBOB binding (Antagonist Radioligand) assay was conducted by Eurofins Pharma Discovery Service of Eurofins Cerep, France.
Compound binding was calculated as a % inhibition of the binding of the radioactive ly labeled ligand [3H] TBOB (t‐[3H]Butylbicycloorthobenzoate) for rat GABAA ion channels.9 A 20.0 mM stock solution was prepared in DMSO from each test compound to evaluate radioligand displacement of [3H] TBOB from rat cerebral cortex GABAA receptors at different concentrations.
The results are expressed as a percent of control specific binding measured specific binding*100 […]
and as a percent inhibition of control specific binding
100 − (measured specific binding*100) […]
obtained in the presence of the test compounds.
The IC50 values (concentration causing a half -maximal inhibition of control specific binding) and Hill coefficients (nH) were determined by non -linear regression analysis of th e competition curves generated with mean replicate values using Hill equation curve fitting […]
where Y = specific binding, A = left asymptote of the curve, D = right asymptote of the curve , C = compound concentration, C 50 = IC50, and nH = slope factor. This analysis was performed using software developed at Cerep (Hill software) and validated by comparison with data generated by th e commercial software SigmaPlot® 4.0 for Windows ® (© 1997 by SPSS Inc.).
The inhibition constants (K i) were calculated using the Cheng Prusoff equation where L = concentration of radioligand in the assay, and KD = affinity of the radioligand for the recept or. A scatchard plot is used to determine the K D.
Supplementary Table 8. IC50 values of test compound
as §1

[3] = tested on: RDL; conditions: cited from earlier work
[4] = tested on: GABAA and RDL receptors; set-up: method as in PMID 8982503; conditions: cited from earlier work
[5] = block of 10 μM GABA response, pre-incubation, -60 mV, Supplementary Table 9 (5MePXN series), n = 4, read-out: IC50
[6] = Supplementary Table 8 (5MePXN series)
[7] = Supplementary Table 8 (PXN series)
[8] = block of 10 μM GABA response, pre-incubation, -60 mV, Supplementary Table 9 (PXN series), n = 4, read-out: IC50

C=C(C)C1C2OC(=O)C1(C)C1(O)CC=C3C(=O)OC2C31C (stereo not shown) [8,9do5MePXN]
IC50 [1, 5]: 4410 nM
IC50 [2, 6]: 9.2 µM

C=C(C)C1C2OC(=O)C1(C)C1(F)CC3OC34C(=O)OC2C41C (stereo not shown) [6F5MePXN]
IC50 [1, 5]: 593 nM
IC50 [2, 6]: 14 µM

CC1(C2C3OC(=O)C2C2(O)CC4OC45C(=O)OC3C25C)CC1 (stereo not shown) [CypPXN]
IC50 [1]: 693 nM
IC50 [2, 7]: 0.39 µM

CC(C)(O)C1C2OC(=O)C1(C)C1(O)CC3OC34C(=O)OC2C41C (stereo not shown) [5MePTN]
IC50 [1, 5]: > 10000 nM
IC50 [2, 6]: > 200 µM

CC1(C2C3OC(=O)C2(C)C2(O)CC4OC45C(=O)OC3C52C)CC1 (stereo not shown) [Cyp5MePXN]
IC50 [1, 5]: 1620 nM
IC50 [2, 6]: 7.7 µM

CC(C)(O)[C@@H]1[C@H]2OC(=O)[C@@H]1[C@]1(O)C[C@H]3O[C@]34C(=O)O[C@H]2[C@]14C [PTN, picrotin, reference compound]
IC50 [1]: 834 nM
reported activity at RDL [3]: inactivity
IC50 [2, 7]: 54 µM

CC(C)(F)C1C2OC(=O)C1(C)C1(O)CC3OC34C(=O)OC2C41C (stereo not shown) [12F5MePXN]
IC50 [1, 5]: > 10000 nM
IC50 [2, 6]: 100 µM

CC(C)(F)C1C2OC(=O)C1C1(O)CC3OC34C(=O)OC2C14C (stereo not shown) [12FPXN]
IC50 [1, 8]: > 10000 nM
IC50 [2, 7]: 5.4 µM

CC(C)(F)C1C2OC(=O)C1C1(F)CC3OC34C(=O)OC2C14C (stereo not shown) [6F12FPXN]
IC50 [1, 8]: 2240 nM
IC50 [2, 7]: 32 µM

CC(C)C1C2OC(=O)C1C1(O)CC3OC34C(=O)OC2C14C (stereo not shown) [HPXN]
IC50 [1]: 1080 nM
IC50 [2, 7]: 1 µM

CC(C)(C)C1C2OC(=O)C1C1(O)CC3OC34C(=O)OC2C14C (stereo not shown) [12MePXN]
IC50 [1, 8]: 676 nM
IC50 [2, 7]: 0.31 µM

C=C(C)C1C2OC(=O)C1C1(O)CC=C3C(=O)OC2C31C (stereo not shown) [8,9doPXN]
IC50 [1, 8]: 2600 nM
IC50 [2, 7]: 0.55 µM

CC(C)(C)C1C2OC(=O)C1(C)C1(O)CC3OC34C(=O)OC2C41C (stereo not shown) [12Me5MePXN]
IC50 [1, 5]: 2880 nM
IC50 [2, 6]: 7.4 µM

CC(C)(O)C1C2OC(=O)C1C1(F)CC3OC34C(=O)OC2C14C (stereo not shown) [6FPTN]
IC50 [1, 8]: 4920 nM
IC50 [2, 7]: 56 µM

picrodendrin O
selectivity index over GABAA [4]: 76 fold

CC(C)C1C2OC(=O)C1(C)C1(O)CC3OC34C(=O)OC2C41C (stereo not shown) [H5MePXN]
IC50 [1, 5]: > 10000 nM
IC50 [2, 6]: 23 µM

CC(C)(O)C1C2OC(=O)C1(C)C1(F)CC3OC34C(=O)OC2C41C (stereo not shown) [6F5MePTN]
IC50 [1, 5]: 1550 nM
IC50 [2, 6]: > 200 µM

C=C(C)C1C2OC(=O)C1C1(F)CC3OC34C(=O)OC2C14C (stereo not shown) [6FPXN]
IC50 [1, 8]: 1050 nM
reported activity at RDL [3]: lose channel blocking ability
IC50 [2, 7]: 0.43 µM

CC(C)(F)C1C2OC(=O)C1(C)C1(F)CC3OC34C(=O)OC2C41C (stereo not shown) [6F12F5MePXN]
IC50 [1, 5]: 994 nM
IC50 [2, 6]: > 200 µM

CC(C)C1C2OC(=O)C1C1(F)CC3OC34C(=O)OC2C14C (stereo not shown) [6FHPXN]
IC50 [1, 8]: 561 nM
IC50 [2, 7]: 6.5 µM

CC(C)C1C2OC(=O)C1(C)C1(F)CC3OC34C(=O)OC2C41C (stereo not shown) [6FH5MePXN]
IC50 [1, 5]: 2740 nM
IC50 [2, 6]: 52 µM
